For 18 compounds, DC50 results are on record in US20240343733A1, “COMPOUNDS FOR TARGETING DEGRADATION OF IRAK4 PROTEINS” (BIOGEN MA INC., priority 2021, published 2024).

The target in the assay is T1, IRAK4 (Homo sapiens, UniProt Q9NWZ3).
T1 construct: 293Tcells expressing HiBiT-tagged IRAK4 were then added into 384-well plates
T1 sequence (Q9NWZ3 1-460): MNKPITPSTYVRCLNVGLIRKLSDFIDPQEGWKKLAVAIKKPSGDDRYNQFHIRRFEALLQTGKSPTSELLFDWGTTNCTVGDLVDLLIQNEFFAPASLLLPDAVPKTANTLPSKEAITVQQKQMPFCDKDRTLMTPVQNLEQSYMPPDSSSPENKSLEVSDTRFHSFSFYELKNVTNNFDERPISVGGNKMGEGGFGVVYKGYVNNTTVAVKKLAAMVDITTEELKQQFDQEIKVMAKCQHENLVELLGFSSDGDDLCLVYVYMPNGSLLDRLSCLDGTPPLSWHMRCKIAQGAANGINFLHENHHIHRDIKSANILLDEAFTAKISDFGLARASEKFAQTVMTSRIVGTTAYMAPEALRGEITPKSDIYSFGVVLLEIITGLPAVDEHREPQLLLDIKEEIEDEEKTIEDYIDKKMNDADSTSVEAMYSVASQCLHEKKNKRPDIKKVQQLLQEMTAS
Nature of the assay: IRAK4 Degradation Assay, HiBiT Method. Format: cell-based. The note with it: 293T cells expressing HiBiT-tagged IRAK4, 6 hours. Summed up:
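293T cells with HiBiT knocked in at the C-terminus of endogenous IRAK4, 10,000 per well, treated 6 h at 37 °C with an 11-point half-log series ([…]), in duplicate. Remaining IRAK4 read by Nano-Glo HiBiT lytic luminescence against DMSO-only and media-only controls.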
For orientation: HiBiT is a short tag that completes a luciferase, so light tracks the accessible tagged protein.
The DC50 is the midpoint of the concentration-degradation curve. Read a high DC50 as a less potent degrader. `CC(C)Oc1cc2nc([C@H]3CC[C@H](CN4CCC(c5ccc(NC6CCC(=O)NC6=O)cc5F)CC4)CC3)cn2cc1C(=O)Nc1cccc(C(F)F)n1` (stereo partly drawn) [Example 18, N-[6-(difluoromethyl)-2-pyridyl]-2-[4-[[4-[4-[(2,6-dioxo-3-piperidyl)amino]-2-fluoro-phenyl]-1-piperidyl]methyl]cyclohexyl]-7-isopropoxy-imidazo[1,2-a]pyridine-6-carboxamide] returned a DC50 of 10 to 100 nM. Under `CC(C)Oc1cc2nn([C@H]3CC[C@H](CN4CC5(CCN(c6ncc(C7CCC(=O)NC7=O)cc6F)CC5)C4)CC3)cc2cc1C(=O)Nc1cccn(C2CC2)c1=O` (stereo partly drawn) [Example 124, N-(1-cyclopropyl-2-oxo-1,2-dihydropyridin-3-yl)-2-((r,4r)-4-((7-(5-(2,6-dioxopiperidin-3-yl)-3-fluoropyridin-2-yl)-2,7-diazaspiro[3.5]nonan-2-yl)methyl)cyclohexyl)-6-isopropoxy-2H-indazole-5-carboxamide] stands less than 10 nM; under `CC(C)Oc1cc2nc(C3CCN(CC(=O)N4CCC(c5cc(F)c(C6CCC(=O)NC6=O)cc5F)CC4)CC3)cn2cc1C(=O)Nc1cnn2cccnc12` (stereo not drawn) [Example 100, 2-[1-[2-[4-[4-(2,6-dioxo-3-piperidyl)-2,5-difluoro-phenyl]-1-piperidyl]-2-oxo-ethyl]-4-piperidyl]-7-isopropoxy-N-pyrazolo[1,5-a]pyrimidin-3-yl-imidazo[1,2-a]pyridine-6-carboxamide], 10 to 100 nM. For `CC(C)Oc1cc2nc(C3CCC(CN4CCC(c5ccc(C6CCC(=O)NC6=O)cc5)CC4)CC3)cn2cc1C(=O)Nc1cccc(C(F)F)n1` (stereo not drawn) [Example 15, N-[6-(difluoromethyl)-2-pyridyl]-2-[4-[[4-[4-(2,6-dioxo-3-piperidyl)phenyl]-1-piperidyl]methyl]cyclohexyl]-7-isopropoxy-imidazo[1,2-a]pyridine-6-carboxamide] the value was 10 to 100 nM. For `CC(C)Oc1cc2nn(C3CCN(C(=O)CC4(O)CCN(c5cc(F)c(C6CCC(=O)NC6=O)cc5F)CC4)CC3)cc2cc1C(=O)Nc1cccc(C(F)F)n1` (stereo not drawn) [Example 67, N-(6-(difluoromethyl)pyridin-2-yl)-2-(1-(2-(1-(4-(2,6-dioxopiperidin-3-yl)-2,5-difluorophenyl)-4-hydroxypiperidin-4-yl)acetyl)piperidin-4-yl)-6-isopropoxy-2H-indazole-5-carboxamide] the value was less than 10 nM; for `CO[C@H]1CN(C[C@H]2CC[C@H](n3cc4cc(C(=O)Nc5cccn(C6CC6)c5=O)c(OC(C)C)cc4n3)CC2)CC[C@H]1c1ccc2c(N3CCC(=O)NC3=O)nn(C)c2c1` [Example 140, N-(1-cyclopropyl-2-oxo-1,2-dihydropyridin-3-yl)-2-((1R,4r)-4-(((3R,4S)-4-(3-(2,4-dioxotetrahydropyrimidin-1(2H)-yl)-1-methyl-1H-indazol-6-yl)-3-methoxypiperidin-1-yl)methyl)cyclohexyl)-6-isopropoxy-2H-indazole-5-carboxamide], less than 10 nM. Compound `CC(C)Oc1cc2nc(C3CCN(C(=O)CC4CCN(c5ccc6c([C@@H]7CCC(=O)NC7=O)nn(C)c6c5)CC4)CC3)cn2cc1C(=O)Nc1cccc(C(F)F)n1` [Example 92, (S)—N-(6-(difluoromethyl)pyridin-2-yl)-2-(1-(2-(1-(3-(2,6-dioxopiperidin-3-yl)-1-methyl-1H-indazol-6-yl)piperidin-4-yl)acetyl)piperidin-4-yl)-7-isopropoxyimidazo[1,2-a]pyridine-6-carboxamide] had a 50% degradation concentration (DC50) of 10 to 100 nM. For `Cc1cn(C2CCC(=O)NC2=O)c2ccc(C3CCN(C[C@H]4CC[C@H](c5cn6cc(C(=O)Nc7cccc(C(F)F)n7)c(OC(C)C)cc6n5)CC4)CC3)cc12` (stereo partly drawn) [Example 44, N-[6-(difluoromethyl)-2-pyridyl]-2-[4-[[4-[1-(2,6-dioxo-3-piperidyl)-3-methyl-indol-5-yl]-1-piperidyl]methyl]cyclohexyl]-7-isopropoxy-imidazo[1,2-a]pyridine-6-carboxamide], the DC50 fell in the range of 10 to 100 nM. Consider `CC(C)Oc1cc2nn([C@H]3CC[C@H](CN[C@@H]4CC[C@H](c5ccc6c(N7CCC(=O)NC7=O)nn(C)c6c5)[C@H](O)C4)CC3)cc2cc1C(=O)Nc1cccn([C@H]2C[C@H]2F)c1=O` [Example 138, 2-((1R,4S)-4-((((1R,3R,4R)-4-(3-(2,4-dioxotetrahydropyrimidin-1(2H)-yl)-1-methyl-1H-indazol-6-yl)-3-hydroxycyclohexyl)amino)methyl)cyclohexyl)-N-(1-((1S,2R)-2-fluorocyclopropyl)-2-oxo-1,2-dihydropyridin-3-yl)-6-isopropoxy-2H-indazole-5-carboxamide], for which the DC50 is less than 10 nM.

`CC(C)Oc1cc2nc(C3CCN(CC(F)=C4CCN(c5ncc(C6CCC(=O)NC6=O)cc5F)CC4)CC3)cn2cc1C(=O)Nc1cccc(C(F)F)n1` (stereo not drawn) [Example 112, N-[6-(difluoromethyl)-2-pyridyl]-2-[1-[2-[1-[5-(2,6-dioxo-3-piperidyl)-3-fluoro-2-pyridyl]-4-piperidylidene]-2-fluoro-ethyl]-4-piperidyl]-7-isopropoxy-imidazo[1,2-a]pyridine-6-carboxamide]: the DC50 was in the range of 10 to 100 nM.

`CC(C)Oc1cc2nc(C3CCN(CC(F)=C4CCN(c5ccc(NC6CCC(=O)NC6=O)cc5)CC4)CC3)cn2cc1C(=O)Nc1cccc(C(F)F)n1` (stereo not drawn) [Example 111, N-(6-(difluoromethyl)pyridin-2-yl)-2-(1-(2-(1-(4-((2,6-dioxopiperidin-3-yl)amino)phenyl)piperidin-4-ylidene)-2-fluoroethyl)piperidin-4-yl)-7-isopropoxyimidazo[1,2-a]pyridine-6-carboxamide] showed a DC50 of 10 to 100 nM. Compound `CC(C)Oc1cc2nn([C@H]3CC[C@H](CN4CCC(c5ccc(OC6CCC(=O)NC6=O)cc5)CC4)CC3)cc2cc1C(=O)Nc1cccn([C@H]2C[C@H]2F)c1=O` (stereo partly drawn) [Example 141, 2-((1r,4S)-4-((4-(4-((2,6-dioxopiperidin-3-yl)oxy)phenyl)piperidin-1-yl)methyl)cyclohexyl)-N-(1-((1S,2R)-2-fluorocyclopropyl)-2-oxo-1,2-dihydropyridin-3-yl)-6-isopropoxy-2H-indazole-5-carboxamide] displayed a DC50 of less than 10 nM. `CC(C)Oc1cc2nn([C@H]3CC[C@H](CN4CC[C@@H](c5ncc(NC6CCC(=O)NC6=O)cc5F)[C@H](O)C4)CC3)cc2cc1C(=O)Nc1cccn([C@H]2C[C@H]2F)c1=O` (stereo partly drawn) [Example 136, 2-((1S,4S)-4-(((3S,4S)-4-(5-((2,6-dioxopiperidin-3-yl)amino)-3-fluoropyridin-2-yl)-3-hydroxypiperidin-1-yl)methyl)cyclohexyl)-N-(1-((1S,2R)-2-fluorocyclopropyl)-2-oxo-1,2-dihydropyridin-3-yl)-6-isopropoxy-2H-indazole-5-carboxamide]: the 50% degradation concentration (DC50) was less than 10 nM. Compound `CC(C)Oc1cc2nc([C@H]3CC[C@](F)(CN4CCC(c5ccc6c(c5)n(C)c(=O)n6C5CCC(=O)NC5=O)CC4)CC3)cn2cc1C(=O)Nc1cccn([C@H]2C[C@H]2F)c1=O` (stereo partly drawn) [Example 194] registered a DC50 of 10 to 100 nM. Under `CC(C)Oc1cc2nc([C@H]3CC[C@H](CN4CC5(CCN(c6ncc(N7CCC(=O)NC7=O)cc6F)CC5)C4)CC3)cn2cc1C(=O)Nc1cccn([C@H]2C[C@H]2F)c1=O` [Example 179, 2-((1r,4S)-4-((7-(5-(2,4-dioxotetrahydropyrimidin-1(2H)-yl)-3-fluoropyridin-2-yl)-2,7-diazaspiro[3.5]nonan-2-yl)methyl)cyclohexyl)-N-(1-((1S,2R)-2-fluorocyclopropyl)-2-oxo-1,2-dihydropyridin-3-yl)-7-isopropoxyimidazo[1,2-a]pyridine-6-carboxamide] stands less than 10 nM. In turn, `CC(C)Oc1cc2nn(C3CCN(C(=O)CC4CCN(c5ccc(C6CCC(=O)NC6=O)cn5)CC4)CC3)cc2cc1C(=O)Nc1cccn([C@H]2C[C@H]2F)c1=O` (stereo partly drawn) [Example 149, 2-(1-(2-(1-(5-(2,6-dioxopiperidin-3-yl)pyridin-2-yl)piperidin-4-yl)acetyl)piperidin-4-yl)-N-(1-((1S,2R)-2-fluorocyclopropyl)-2-oxo-1,2-dihydropyridin-3-yl)-6-isopropoxy-2H-indazole-5-carboxamide] gave a DC50 of less than 10 nM.

As for `CC(C)Oc1cc2nc(C3CCN(CC(=O)N4CCC(c5cc(F)c(C6CCC(=O)NC6=O)cc5F)CC4)CC3)cn2cc1C(=O)Nc1cccc(C(F)F)n1` (stereo not drawn) [Example 97, N-[6-(difluoromethyl)-2-pyridyl]-2-[1-[2-[4-[4-(2,6-dioxo-3-piperidyl)-2,5-difluoro-phenyl]-1-piperidyl]-2-oxo-ethyl]-4-piperidyl]-7-isopropoxy-imidazo[1,2-a]pyridine-6-carboxamide], the DC50 was in the range of 10 to 100 nM. Turning to `CC(C)Oc1cc2nc(C3CCN(C(=O)CN4CCC(c5ccc(C6(F)CCC(=O)NC6=O)cc5)CC4)CC3)cn2cc1C(=O)Nc1cccc(C(F)F)n1` (stereo not drawn) [Example 88, N-[6-(difluoromethyl)-2-pyridyl]-2-[1-[2-[4-[4-(3-fluoro-2,6-dioxo-3-piperidyl)phenyl]-1-piperidyl]acetyl]-4-piperidyl]-7-isopropoxy-imidazo[1,2-a]pyridine-6-carboxamide], the DC50 lay within 10 to 100 nM.
